Experiments:
[1] = target: T1, MK2 (Homo sapiens, UniProt P49137); experiment: MK2 degradation in human THP-1 monocytic cells (MSD, 24 h); format: cell-based; set-up: endogenous in cells; key to MK2 MSD THP-1 degradation 24 h GMean External Abs DC50: A (<0.001 μM); B (0.001-0.01 μM); C (0.01-0.1 μM); D (>0.1 μM); —: “-”=not tested or inactive; details: for Dmax: THP-1, THP-1 cells; for DC50 / MK2 MSD THP-1 degradation 24 h GMean External Abs DC50: THP-1 cells; for DC50: read-out: MK2 MSD THP-1 degradation 24 h GMean External Abs DC50
Experimental: MK2 Degradation in Human THP-1 Monoctyic Cells
(§1) The human monocytic cancer cell line THP-1 (ATCC (TIB-202)) was cultured in 96 well plates (Corning 3894) at a density of 200,000 cells per well in 100 microlitres in complete growth medium of RPMI 1640 (Gibco) pus 10% fetal Bovine Serum (Corning) and Penicillin/Streptomycin (SolarBio) at 37 degrees Celsius and 5% CO2. A serial dilution of each compound (usually 3 to 5 fold serial dilutions up to 10 separate concentration points) was added to individual wells from a 10 millimolar stock solution, at a background concentration of 0.1% DMSO and the cells were shaken at 600 rpm for 5 minutes and then were cultured for 24 hours at 37 degrees Celsius and 5% carbon dioxide. Separately, a custom MSD (MesoScaleDiscovery, L15XA-3) plate for detection of human MK2 was prepared by coating the plate with the commercial AbCam ab247272 reagent in 1×Phosphate Buffered Saline at 40 microlitres per well and incubated at 4 degrees Celsius overnight. The next day, the MSD plate was washed with 150 microlitres of Tween buffered saline, blocked with MSD blocking buffer (3% Blocker A from MSD), and washed again.
(§2) The cell plate was centrifuged at 3,200 g for 5 minutes and the supernatant was discarded and 100 microlitres of RIPA lysis buffer (containing proteinase inhibitors, Boston BioProducts BP-115D) was added and the plate was sealed and shaken on ice for 20 minutes. The plate was centrifuged as before and 70 microlitres of sample lysate was added to the MSD plates and they were shaken at room temperature for 1 hour at 600 rpm. The MSD plate was washed 3 times as before and then the primary MK2 detection antibody (Santa Cruz sc-100393) was added at a final concentration of 1 microgram per ml at 25 microlitres per well and shaken at room temperature for 1 hour at 600 rpm.
(§3) After 3 more washes, the secondary detection antibody (SULFO-Tag anti rabbit antibody R32AB-5) was added at a final concentration of 1 microgram per ml at 25 microlitres per well and shaken at room temperature for 1 hour at 600 rpm. After 3 more washes, the 1×MSD (diluted from 5× concentrate with water) reading buffer was added at 150 microlitres per well and read on the MSD instrument Meso Sector S 600.
(§4) The inhibition/degradation curves and DC50 values were plotted and calculated using XL Fit (version v5.3.1.3) using equation 201 and a 4 parameter logistic model whereby fit=(A+((B−A)/(1+((x/C)D))) where A is the Bottom and B is the Top and C is the IC50 and D is the slope and high C is the signal for the DMSO treated cells and Low C is the signal is the signal for the lysis buffer.

[2] = target: T1, MK2; experiment: MK2 degradation in human SW1353 cells (MSD, 24 h); format: cell-based; set-up: endogenous in cells; host or cells: SW-1353 (ATCC HTB-94); key to MK2 MSD SW1353 degradation 24 h GMean External Abs DC50: A (<0.001 μM); B (0.001-0.01 μM); C (0.01-0.1 μM); D (>0.1 μM); —: “-”=not tested or inactive; details: for Dmax: read-out: MK2 MSD SW 1353 24 h Dmax %; for DC50: read-out: MK2 MSD SW1353 degradation 24 h GMean External Abs DC50
Experimental: MK2 Degradation in Human SW1353 Cells
as §1, with “chondrocyte” for “monocytic”, “SW-1353 (ATCC(HTB-94))” for “THP-1 (ATCC (TIB-202))”, “Leibovitz's L-15 Medium” for “RPMI 1640”, “Celsius.” for “Celsius and 5% CO2.”, “Celsius.” for “Celsius and 5% carbon dioxide.”
as §2, §3, §4

T1 sequence (P49137 whole entry): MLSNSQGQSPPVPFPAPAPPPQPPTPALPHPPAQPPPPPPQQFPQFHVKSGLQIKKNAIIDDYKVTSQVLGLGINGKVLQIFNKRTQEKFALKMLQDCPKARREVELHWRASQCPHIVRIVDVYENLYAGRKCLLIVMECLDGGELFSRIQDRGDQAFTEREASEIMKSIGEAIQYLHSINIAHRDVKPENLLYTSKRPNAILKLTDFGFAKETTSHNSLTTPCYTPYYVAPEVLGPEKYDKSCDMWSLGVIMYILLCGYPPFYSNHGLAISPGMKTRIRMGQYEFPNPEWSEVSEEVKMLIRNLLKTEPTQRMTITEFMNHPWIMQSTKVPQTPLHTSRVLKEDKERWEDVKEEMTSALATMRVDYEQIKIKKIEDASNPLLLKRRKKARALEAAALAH

| SMILES | Dmax [1] [%] | DC50 [1] [nM] | Dmax [2] [%] | DC50 [2] [nM] | MK2 MSD THP-1 degradation 24 h GMean External Abs DC50 [1] | MK2 MSD SW1353 degradation 24 h GMean External Abs DC50 [2] |
| --- | --- | --- | --- | --- | --- | --- |
| C[C@@H]1CNc2c(sc3ccc4nc(-c5ccc(N6CCN(CC7CCN(c8ccc9c(c8)n(C)c(=O)n9C8CCC(=O)NC8=O)CC7)CC6)cc5)ccc4c23)C(=O)N1 (stereo partly drawn) [Compound I-130] | > 75 | < 1 | > 75 | < 1 |  |  |
| C#Cc1cc(-c2ccc3c(ccc4sc5c(c43)NC[C@@H](C)NC5=O)n2)cc(N2CCN(CC3CCN(c4ccc5c(c4)n(C)c(=O)n5C4CCC(=O)NC4=O)CC3)CC2)c1 (stereo partly drawn) [Compound I-186] | > 75 |  | > 75 |  | — | — |
| C[C@@H]1CNc2c(sc3ccc4nc(-c5ccc(C6CCN(CC7CCN(c8cccc9c8n(C)c(=O)n9C8CCC(=O)NC8=O)CC7)CC6)nc5)ccc4c23)C(=O)N1 (stereo partly drawn) [Compound I-122] | > 75 | < 1 | > 75 | < 1 |  |  |
| C[C@@H]1CNc2c(sc3ccc4nc(N5CCC(CN6CC7(C6)CN(c6ccc8c(c6)n(C)c(=O)n8C6CCC(=O)NC6=O)C7)CC5)ccc4c23)C(=O)N1 (stereo partly drawn) [Compound I-439] | > 75 | 1 to 10 | > 75 | < 1 |  |  |
| Cn1c(=O)n(C2CCC(=O)NC2=O)c2ccc(N3CCC(CN4CCN(c5ccc(-c6cc(-c7cc8c([nH]7)C7(CC7)CNC8=O)ccn6)cc5)CC4)CC3)cc21 (stereo not drawn) [Compound I-244] | > 75 | < 1 | > 75 | < 1 |  |  |
| O=C1CCC(N2Cc3cc(N4CCN(CC5CCN(c6ccc(-c7cc(-c8cc9c([nH]8)CCNC9=O)ccn7)c(F)c6)CC5)CC4)ccc3C2=O)C(=O)N1 (stereo not drawn) [Compound I-295] | 50 to 75 | 10 to 100 | > 75 | 10 to 100 |  |  |
| C[C@@H]1CNc2c(sc3ccc4nc(-c5ccc(C#CCCNC(=O)CCCCCCCCCc6ccc7c(c6)n(C)c(=O)n7C6CCC(=O)NC6=O)cc5)ccc4c23)C(=O)N1 (stereo partly drawn) [Compound I-53] | 50 to 75 | 10 to 100 | > 75 | 10 to 100 |  |  |
| C[C@@H]1CNc2c(sc3ccc4nc(-c5ccc(N6CCN(CCCc7ccc8c(c7)n(C)c(=O)n8C7CCC(=O)NC7=O)CC6)cc5Cl)ccc4c23)C(=O)N1 (stereo partly drawn) [Compound I-251] | < 50 |  | 50 to 75 | < 1 | — |  |
| C[C@@H]1CNc2c(sc3ccc4nc(N5CCC6(CC5)CC(N5CCN(c7ccc8c(c7)n(C)c(=O)n8C7CCC(=O)NC7=O)CC5)C6)ccc4c23)C(=O)N1 (stereo partly drawn) [Compound I-185] | > 75 |  | > 75 |  | — | — |
| Cc1cc(-c2cc(-c3cc4c([nH]3)C3(CC3)CNC4=O)ccn2)cc(C)c1N1CCN(CC2CCN(c3ccc4c(c3)n(C)c(=O)n4C3CCC(=O)NC3=O)CC2)CC1 (stereo not drawn) [Compound I-194] | > 75 | < 1 | > 75 | < 1 |  |  |
| C[C@@H]1CNc2c(sc3ccc4nc(-c5cnc(N6CCN(CC7CCN(c8ccc9c(c8)n(C)c(=O)n9C8CCC(=O)NC8=O)CC7)CC6)nc5)ccc4c23)C(=O)N1 (stereo partly drawn) [Compound I-282] | > 75 | < 1 | > 75 | < 1 |  |  |
| C[C@@H]1CNc2c(sc3ccc4nc(-c5ccc(N6CCC(CN7CCC(c8ccc9c(c8)n(C)c(=O)n9C8CCC(=O)NC8=O)CC7)CC6)cc5)ccc4c23)C(=O)N1 (stereo partly drawn) [Compound I-119] | > 75 | < 1 | > 75 | < 1 |  |  |
| Cn1c(=O)n(C2CCC(=O)NC2=O)c2ccc(CCCN3CCN(c4ccc(-c5cc(-c6cc7c([nH]6)C6(CC6)CNC7=O)ccn5)cc4)CC3)cc21 (stereo not drawn) [Compound I-242] | 50 to 75 | 10 to 100 | > 75 | 1 to 10 |  |  |

Continued, values first:

| Dmax [1] [%] | DC50 [1] [nM] | Dmax [2] [%] | DC50 [2] [nM] | MK2 MSD THP-1 degradation 24 h GMean External Abs DC50 [1] | MK2 MSD SW1353 degradation 24 h GMean External Abs DC50 [2] | SMILES |
| --- | --- | --- | --- | --- | --- | --- |
| > 75 | 1 to 10 | > 75 | 10 to 100 |  |  | C[C@@H]1CNc2c(sc3ccc4nc(-c5cccc(C6CCN(CCN7CCC(CCc8cccc9c8n(C)c(=O)n9C8CCC(=O)NC8=O)CC7)CC6)c5)ccc4c23)C(=O)N1 (stereo partly drawn) [Compound I-104] |
| < 50 | 1 to 10 | 50 to 75 | 1 to 10 |  |  | Cc1cc(-c2ccc3c(ccc4sc5c(c43)NC[C@@H](C)NC5=O)n2)cnc1N1CCN(CCCc2ccc3c(c2)n(C)c(=O)n3C2CCC(=O)NC2=O)CC1 (stereo partly drawn) [Compound I-258] |
| > 75 | < 1 | > 75 | 1 to 10 |  |  | C[C@@H]1CNc2c(sc3ccc4nc(-c5cnc(N6CCC(CN7CCN(c8cccc9c8n(C)c(=O)n9C8CCC(=O)NC8=O)CC7)CC6)nc5)ccc4c23)C(=O)N1 (stereo partly drawn) [Compound I-270] |
| > 75 | < 1 | > 75 | 1 to 10 |  |  | C[C@@H]1CNc2c(sc3ccc4nc(-c5cccc(N6CCN(CC7CCN(c8ccc9c(c8)CN(C8CCC(=O)NC8=O)C9=O)CC7)CC6)c5)ccc4c23)C(=O)N1 (stereo partly drawn) [Compound I-303] |
| < 50 | > 100 | 50 to 75 | 10 to 100 |  |  | C[C@@H]1Cc2oc(-c3ccnc(-c4ccc(N5CCN(CC6CCN(c7cccc8c7n(C)c(=O)n8C7CCC(=O)NC7=O)CC6)CC5)nc4)c3)cc2C(=O)N1 (stereo partly drawn) [Compound I-416] |
| 50 to 75 | 10 to 100 | > 75 | 10 to 100 |  |  | O=C1CCN(c2cncc3c(N4CCC(CN5CCN(c6ccc(-c7cc(-c8cc9c([nH]8)CCNC9=O)ccn7)cc6)CC5)CC4)cccc23)C(=O)N1 [Compound I-210] |
| > 75 | 1 to 10 | > 75 | 1 to 10 |  |  | C[C@@H]1CNc2c(sc3ccc4nc(-c5ccc(N6CCN(CCCCCCCCc7cccc8c7n(C)c(=O)n8C7CCC(=O)NC7=O)CC6)cc5)ccc4c23)C(=O)N1 (stereo partly drawn) [Compound I-170] |
| > 75 | 1 to 10 | > 75 | 1 to 10 |  |  | C[C@@H]1CNc2c(sc3ccc4nc(-c5ccc(N6CCC(CCN7CCN(c8cccc9c8n(C)c(=O)n9C8CCC(=O)NC8=O)CC7)CC6)cc5)ccc4c23)C(=O)N1 (stereo partly drawn) [Compound I-128] |
| < 50 | > 100 | < 50 | > 100 |  |  | C[C@@H]1CNc2c(sc3ccc4nc(N5CCCN(CC6CCN(c7cccc8c7n(C)c(=O)n8C7CCC(=O)NC7=O)CC6)CC5)ccc4c23)C(=O)N1 (stereo partly drawn) [Compound I-442] |
| > 75 | < 1 | > 75 | < 1 |  |  | C[C@@H]1CNc2c(sc3ccc4nc(-c5ccc(N6CCN(CC7CN(c8ccc9c(c8)n(C)c(=O)n9C8CCC(=O)NC8=O)C7)CC6)cc5Cl)ccc4c23)C(=O)N1 (stereo partly drawn) [Compound I-235] |
| > 75 | 10 to 100 | > 75 | 10 to 100 |  |  | C[C@@H]1CNc2c(sc3ccc4nc(-c5cccc(N6CCN(CCCCCCCCCCc7cccc8c7n(C)c(=O)n8C7CCC(=O)NC7=O)CC6)c5)ccc4c23)C(=O)N1 (stereo partly drawn) [Compound I-177] |

Source: US20230135894A1, “MK2 DEGRADERS AND USES THEREOF” (Kymera Therapeutics, Inc., priority 2021, published 2023)
